This is an account of results in ChEMBL document CHEMBL3507680, “University of Dundee, Gates Library screen for HepG2 cell viability”.

A short description of the data set: Human HepG2 cell viability assay in 384 well format. The following applies: HepG2 cells, read-out: Inhibition. The format is toxicity, cell-based. Set-up: dose 125 nL, time 70.5 hour; concentration not given beside the values.
With `Cc1ccc(N2CC[C@H]3OCC[C@@]3(C(=O)N(C)C)C2)nn1`, the cytotoxicity at 70.5 h was -8.34%.

Consider `CCN1CCC2(COCc3c(C)nc(N(C)C)nc32)C1` (stereo unspecified), for which the cytotoxicity at 70.5 h was -8.16%.

For the compound `CC(C)CN1C(=O)C2(CCN(Cc3ccc(F)cc3)C2)c2ccccc21` (stereo unspecified), the cytotoxicity at 70.5 h is -0.325%.

As for `COCc1cncc2c1CCN(Cc1cccnc1)C2`, the cytotoxicity at 70.5 h is -3.24%.

In the case of `COCCO[C@H]1CCN(c2ccc(C)nn2)[C@H]1Cc1cnn(C)c1`, the cytotoxicity at 70.5 h was -3.27%.

Take `CC(=O)NCC(=O)N1CCOC2(CCCN(c3ccc(C)nn3)C2)C1` (stereo unspecified): the cytotoxicity at 70.5 h was -11.9%.

As for `CN1CCN(C(=O)[C@H]2C[C@H]3[C@H](CCN3Cc3nccs3)O2)CC1`, the cytotoxicity at 70.5 h was -10.8%.

Turning to `CC(=O)N1CC(=O)N(c2cnn(C)c2)CC12CCN(Cc1ccco1)C2` (stereo unspecified), the cytotoxicity at 70.5 h is -16.8%.

Regarding `Cc1nocc1C(=O)N1CCc2c(CN(C)C)nn(C)c2C1`, the cytotoxicity at 70.5 h is -13.6%.

For `CC(C)(C)C(=O)N1CC[C@@H]2[C@H](CC1)N(S(C)(=O)=O)CCS2(=O)=O`, the cytotoxicity at 70.5 h was -10.7%.

In the case of `Cc1cccc(NC(=O)N2CCC3(CC(=O)N(c4ccsc4)C3)C2)c1` (stereo unspecified), the cytotoxicity at 70.5 h was -5.62%.

On to `CNC(=O)CN1CCOCC2(CCCN(Cc3ccoc3)C2)C1` (stereo unspecified), for which the cytotoxicity at 70.5 h was -8.87%.

For `CC(=O)N1CC(=O)N(c2ccsc2)CC12CCN(Cc1ccoc1)C2` (stereo unspecified), the cytotoxicity at 70.5 h was -11.1%.

Consider `CN1CCN(C(=O)[C@H]2CC[C@@H]3[C@@H](CCN3Cc3nccs3)O2)CC1`, for which the cytotoxicity at 70.5 h is -13.2%.

Take `CNC(=O)[C@@H]1CCO[C@@H]2CCN(CCc3ccccc3)C[C@H]21`: the cytotoxicity at 70.5 h is -3.11%.

As to `CCCS(=O)(=O)N1CCO[C@H]2[C@@H](Oc3cccnc3)CC[C@@H]21`, the cytotoxicity at 70.5 h is -1.96%.

On to `CN(C)c1ncc(-c2cc(C(=O)NCCO)n(CC3CC3)c2)cn1`, for which the cytotoxicity at 70.5 h is -6%.

In the case of `CCCS(=O)(=O)N1C[C@@H](Oc2ncccc2F)[C@H]2OCCC[C@H]21`, the cytotoxicity at 70.5 h is -10.6%.

As to `O=C(NCC1CC1)[C@@H]1CCO[C@@H]2CCN(CCc3ccccc3)C[C@H]21`, the cytotoxicity at 70.5 h is -5.09%.

In the case of `CN(C)C(=O)[C@@H]1C[C@@H]2[C@@H](CCN2Cc2nccs2)O1`, the cytotoxicity at 70.5 h is -5.24%.

Turning to `CC1=N[C@@]2(CC[C@@H]3CN(Cc4ccc(C)cc4)C[C@@H]32)C(=O)N1CC1CC1`, the cytotoxicity at 70.5 h is -12.4%.

As to `O=C(c1cnccn1)N1CCOC2(CCCN(c3ncccc3F)C2)C1` (stereo unspecified), the cytotoxicity at 70.5 h was -16.1%.

On to `O=C(CC1CCCC1)N1C[C@H](Oc2cccnc2)[C@H]2OCCC[C@H]21`, for which the cytotoxicity at 70.5 h was -16.9%.

For the compound `O=C([C@H]1CCCO1)N1CCOC2(CCCN(c3ncccc3F)C2)C1` (stereo partly specified), the cytotoxicity at 70.5 h is -15.7%.

For `CO[C@H]1CN(C(=O)c2cccnc2)[C@@H]2CCCO[C@H]12`, the cytotoxicity at 70.5 h is -11.9%.

As to `COCC1Cn2nnc(-c3cnn(C)c3)c2CN1Cc1cccs1` (stereo unspecified), the cytotoxicity at 70.5 h was -12.1%.

In the case of `CO[C@H]1CC[C@H]2[C@H]1OCCN2Cc1ccc(F)cc1`, the cytotoxicity at 70.5 h turned out to be 9.89%.

Consider `CC(C)N(C)Cc1cnc2n1CCN(Cc1ccco1)C2`, for which the cytotoxicity at 70.5 h was -14%.

As for `CNC(=O)CN1CCOCC2(CCCN(CCc3ccccc3)C2)C1` (stereo unspecified), the cytotoxicity at 70.5 h was -10.9%.

Turning to `CCN1CCn2c(C)cnc2C12CCN(C(=O)C(C)C)CC2`, the cytotoxicity at 70.5 h is -15.2%.

As for `CN(C)C(=O)COCc1cncc2c1CCN(Cc1ccccn1)C2`, the cytotoxicity at 70.5 h was -7.2%.

Regarding `CNC(=O)CN1CCOCC2(CCCN(Cc3ccc(F)cc3)C2)C1` (stereo unspecified), the cytotoxicity at 70.5 h was -9.75%.

Take `Cc1nc(CN2CCC3(CCN(Cc4cnn(C)c4)CC3)C2=O)cs1`: the cytotoxicity at 70.5 h came out at 10.4%.

Consider `FC1(F)CCN(Cc2ccncc2)CC12CCN(c1cnccn1)C2` (stereo unspecified), for which the cytotoxicity at 70.5 h was -8.66%.

For `c1ccc(CN2CCc3c(COCC4CC4)cncc3C2)nc1`, the cytotoxicity at 70.5 h is -11.4%.

Take `CN(C)CCOCc1cncc2c1CCN(Cc1ccccn1)C2`: the cytotoxicity at 70.5 h was -10.9%.
